Earlier results in patent US20240173413A1, “Ultrasound Responsive Nanobubble Compositions and Methods of Production and Use Thereof” (University of Central Florida Research Foundation, lnc., priority 2021, published 2024).
Like-named read-outs stand apart in the source and are kept apart here.

Test system: patients with postmenopausal osteoporosis
Details: Phase III, development terminated

## CC(C)(F)C[C@H](N[C@@H](c1ccc(-c2ccc(S(C)(=O)=O)cc2)cc1)C(F)(F)F)C(=O)NC1(C#N)CC1 [Odanacatib]
  adverse effects: increased risk of stroke
Listed as ODN
  adverse effects: cardio-cerebrovascular adverse effects
